Assay results taken from EPA's CvTdb concentration-time database (doi:10.1093/toxsci/kfy020).

Legend:
Assay in all cases: concentration in plasma after dosing
rat [1] = conditions: dosed: Cyclanilide, 1.0000000000 mg/kg, oral, male, Sprague-Dawley
rat [2] = conditions: dosed: Cyclanilide, 1.0000000000 mg/kg, oral, male, Sprague-Dawley; remark: listed apart in the source
rat [3] = conditions: dosed: Cyclanilide, 0.2000000000 mg/kg, iv, male, Sprague-Dawley
rat [4] = conditions: Sprague-Dawley
rat [5] = conditions: dosed: Cyclanilide, 1.0000000000 mg/kg, oral, male, Sprague-Dawley; remark: listed apart in the source
rat [6] = conditions: dosed: Cyclanilide, 0.2000000000 mg/kg, iv, male, Sprague-Dawley; remark: listed apart in the source
rat [7] = conditions: dosed: Cyclanilide, 0.2000000000 mg/kg, iv, male, Sprague-Dawley; remark: listed apart in the source
rat [8] = conditions: dosed: Propyzamide, 3.0000000000 mg/kg, oral, male, Sprague-Dawley
rat [9] = conditions: dosed: Propyzamide, 0.6 mg/kg, iv, male, Sprague-Dawley
rat [10] = conditions: dosed: Propyzamide, 3.2120000000 mg/kg, oral, male, Sprague-Dawley
rat [11] = conditions: dosed: Propyzamide, 3.0000000000 mg/kg, oral, male, Sprague-Dawley; remark: listed apart in the source
rat [12] = conditions: dosed: Propyzamide, 3.0000000000 mg/kg, oral, male, Sprague-Dawley; remark: listed apart in the source
rat [13] = conditions: dosed: Propyzamide, 3.2120000000 mg/kg, oral, male, Sprague-Dawley; remark: listed apart in the source
rat [14] = conditions: dosed: Propyzamide, 0.6 mg/kg, iv, male, Sprague-Dawley; remark: listed apart in the source
rat [15] = conditions: dosed: Pyrithiobac sodium, 1.037 mg/kg, oral, male, Sprague-Dawley
rat [16] = conditions: dosed: Pyrithiobac sodium, 1.037 mg/kg, oral, male, Sprague-Dawley; remark: listed apart in the source
rat [17] = conditions: dosed: Nilvadipine, 10.0000000000 mg/kg, oral, male, Sprague-Dawley

O=C(O)C1(C(=O)Nc2ccc(Cl)cc2Cl)CC1 [Cyclanilide]
concentration in plasma [ng/mL]
Conditions | rat [1] | rat [2] | rat [3] | rat [5] | rat [6] | rat [7]
0.25 h | 1140 | 869 | – | 100 | – | –
0.5 h | 646 | 1060 | 727 | 1120 | 1000 | 972
1 h | 801 | 808 | 910 | 1210 | 744 | 639
2 h | 568 | 575 | 416 | 918 | 364 | 475
4 h | 464 | 482 | 262 | 827 | 222 | 251
5 min | – | – | 1560 | – | 1520 | 1730
8 h | 336 | 200 | 81.1 | 507 | 71.9 | 77
10 min | – | – | 1400 | – | 1200 | 2250
12 h | 284 | 184 | 98.9 | 293 | 68.8 | 65.7
24 h | 18.7 | 39.6 | 6.5 | 101 | 7.7 | 8
48 h | 1.5 | – | 0.8 | 1.3 | 3.1 | 2.1
72 h | 1.3 | – | 1.2 | 1.2 | – | 1.7

rat [4], dosed: Cyclanilide, male
Conditions | concentration in plasma [ng/mL]
0.25 h, 1.0000000000 mg/kg, oral | 1720
0.5 h, 0.2000000000 mg/kg, iv | 1140
0.5 h, 1.0000000000 mg/kg, oral | 1470
1 h, 0.2000000000 mg/kg, iv | 982
1 h, 1.0000000000 mg/kg, oral | 1150
2 h, 0.2000000000 mg/kg, iv | 553
2 h, 1.0000000000 mg/kg, oral | 780
4 h, 0.2000000000 mg/kg, iv | 412
4 h, 1.0000000000 mg/kg, oral | 518
5 min, 0.2000000000 mg/kg, iv | 1960
8 h, 0.2000000000 mg/kg, iv | 156
8 h, 1.0000000000 mg/kg, oral | 617
10 min, 0.2000000000 mg/kg, iv | 1780
12 h, 0.2000000000 mg/kg, iv | 84.1
12 h, 1.0000000000 mg/kg, oral | 234
24 h, 0.2000000000 mg/kg, iv | 28.9
24 h, 1.0000000000 mg/kg, oral | 24.9
48 h, 0.2000000000 mg/kg, iv | 2.5
48 h, 1.0000000000 mg/kg, oral | 1
72 h, 0.2000000000 mg/kg, iv | 3.2
72 h, 1.0000000000 mg/kg, oral | 1.5

C#CC(C)(C)NC(=O)c1cc(Cl)cc(Cl)c1 [Propyzamide]
concentration in plasma [ng/mL]
Conditions | rat [8] | rat [9] | rat [10] | rat [11] | rat [12] | rat [13] | rat [14]
0.25 h | 125 | – | 228 | 43.1 | 62.6 | 217 | –
0.5 h | 118 | 65.8 | 302 | 104 | 83.7 | 244 | 46.9
1 h | 90.6 | 49.6 | 262 | 75.4 | 61.9 | 205 | 23.8
2 h | 50.7 | 19.8 | 158 | 46.3 | 29.5 | 98.2 | 9.3
4 h | 17.4 | 7.8 | 234 | 54 | 49.3 | 159 | 1.2
5 min | – | 156 | – | – | – | – | 119
8 h | 24.1 | – | 116 | 44.1 | 50.9 | 148 | 1.4
10 min | – | 131 | – | – | – | – | 122
12 h | 8.2 | 0.6 | – | 8.2 | 6.1 | – | –
24 h | – | – | 3.06 | 1.5 | – | 2.89 | –
48 h | – | – | 0.269 | – | – | 0.376 | –
72 h | – | – | 0.0997 | – | – | 0.0426 | –

rat [4], dosed: Propyzamide, male
Conditions | concentration in plasma [ng/mL]
0.25 h, 3.0000000000 mg/kg, oral | 96.6
0.25 h, 3.2120000000 mg/kg, oral | 252
0.5 h, 0.6 mg/kg, iv | 47.6
0.5 h, 3.0000000000 mg/kg, oral | 130
0.5 h, 3.2120000000 mg/kg, oral | 359
1 h, 0.6 mg/kg, iv | 15.1
1 h, 3.0000000000 mg/kg, oral | 103
1 h, 3.2120000000 mg/kg, oral | 323
2 h, 3.0000000000 mg/kg, oral | 58.4
2 h, 3.2120000000 mg/kg, oral | 153
4 h, 0.6 mg/kg, iv | 3.1
4 h, 3.0000000000 mg/kg, oral | 39.7
4 h, 3.2120000000 mg/kg, oral | 174
5 min, 0.6 mg/kg, iv | 165
8 h, 3.0000000000 mg/kg, oral | 49.7
8 h, 3.2120000000 mg/kg, oral | 83.5
10 min, 0.6 mg/kg, iv | 117
12 h, 3.0000000000 mg/kg, oral | 16.8
24 h, 3.0000000000 mg/kg, oral | 1.2
24 h, 3.2120000000 mg/kg, oral | 2.23
48 h, 3.2120000000 mg/kg, oral | 0.327
72 h, 3.2120000000 mg/kg, oral | 0.0846

COc1cc(OC)nc(Sc2cccc(Cl)c2C(=O)[O-])n1.[Na+] [Pyrithiobac sodium]
rat [4], dosed: Pyrithiobac sodium, 1.037 mg/kg, oral, male
Conditions | concentration in plasma [ng/mL]
0.25 h | 1080
0.5 h | 1060
1 h | 1190
2 h | 458
4 h | 126
8 h | 37
24 h | 0.55
72 h | 0.206

concentration in plasma [ng/mL]
Conditions | 0.25 h | 0.5 h | 1 h | 2 h | 4 h | 8 h | 24 h
rat [15] | 1380 | 1560 | 1090 | 437 | 112 | 31.9 | 0.833
rat [16] | 1400 | 1190 | 1270 | 331 | 154 | 65.6 | 1.06

COC(=O)C1=C(C#N)NC(C)=C(C(=O)OC(C)C)C1c1cccc([N+](=O)[O-])c1 (stereo not drawn) [Nilvadipine]
concentration in plasma [ng/mL], rat [4], dosed: Nilvadipine
Conditions | 0.25 h | 0.5 h | 1 h | 2 h | 4 h | 5 min | 6 h | 8 h | 10 h
0.1000000000 mg/kg, iv, female | 16 | 8 | 4.43 | 2.48 | 0.674 | 27.3 | – | – | –
0.1000000000 mg/kg, iv, male | 11.8 | 7.16 | 3.5 | 2.19 | 0.824 | 29.2 | 0.387 | – | –
10.0000000000 mg/kg, oral, male | 34.6 | 44.3 | 14.6 | 10.7 | 3.01 | – | 4.89 | 2.84 | 12.2

rat [17]
Conditions | concentration in plasma [ng/mL]
0.25 h | 271
0.5 h | 160
1 h | 75.8
2 h | 99.2
4 h | 27.8
6 h | 22.1
8 h | 15
10 h | 1.26
